Laboratory results: patent US8802597B2, “Herbicidal pyrimidines” (E I du Pont de Nemours and Company, priority 2003, dated 2014)

Experiments:
Format in all cases: in vivo
[1] = system: early watergrass (Echinochloa oryzoides); experiment: Test E flooded paddy water application; conditions: Flood, 21 days, scale 0 to 100 (0 no effect, 100 complete control); for Plant response rating, Watergrass, Early: 16 g ai/ha
In short: (§1)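 Response scored visually on a 0–100 scale (100 = complete control) at 21 days against untreated pots. Treatment was into paddy water 3 cm deep over silt loam, with plants at the 2.0–2.5-leaf stage, grown under 16-h light at 29.5/26.7 °C day/night.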

[2] = system: purple redstem (Ammannia coccinea); experiment: Test E flooded paddy water application; conditions: Flood, 21 days, scale 0 to 100 (0 no effect, 100 complete control); for Plant response rating, Redstem: 16 g ai/ha
In short: as §1

[3] = system: barnyardgrass (Echinochloa crus-galli); experiment: Test E flooded paddy water application; conditions: Flood, 21 days, scale 0 to 100 (0 no effect, 100 complete control); for Plant response rating, Barnyardgrass: 16 g ai/ha
In short: as §1

[4] = system: bearded (brdd.) sprangletop (Leptochloa fusca ssp. fascicularis); experiment: Test E flooded paddy water application; conditions: Flood, 21 days, scale 0 to 100 (0 no effect, 100 complete control); for Plant response rating, Sprangletop, Brdd.: 16 g ai/ha
In short: as §1

[5] = system: smallflower umbrella sedge (Cyperus difformis); experiment: Test E flooded paddy water application; conditions: Flood, 21 days, scale 0 to 100 (0 no effect, 100 complete control); for Plant response rating, Sedge, Umbrella: 16 g ai/ha
In short: as §1

[6] = system: transplanted rice seedlings (Oryza sativa cv. ‘Japonica-M202’); experiment: Test E flooded paddy water application; conditions: Flood, 21 days, scale 0 to 100 (0 no effect, 100 complete control); for Plant response rating, Rice, Transplanted: 16 g ai/ha
In short: as §1

[7] = system: junglerice (Echinochloa colona); experiment: Test E flooded paddy water application; conditions: Flood, 21 days, scale 0 to 100 (0 no effect, 100 complete control); for Plant response rating, Junglerice: 16 g ai/ha
In short: as §1

[8] = system: ducksalad (Heteranthera limosa); experiment: Test E flooded paddy water application; conditions: Flood, 21 days, scale 0 to 100 (0 no effect, 100 complete control); for Plant response rating, Ducksalad: 16 g ai/ha
In short: as §1

[9] = system: chickweed (Stellaria media); experiment: Test C postemergence; conditions: for Chickweed plant response rating: scale 0 to 100 (0 no effect, 100 complete control); for Plant response rating, Chickweed: scale 0 to 100
Description: Seeds or nutlets of plant species selected from bermudagrass (Cynodon dactylon), Surinam grass (Brachiaria decumbens), cocklebur (Xanthium strumarium), corn (Zea mays), crabgrass (Digitaria sanguinalis), woolly cupgrass (Eriochloa villosa), giant foxtail (Setaria faberii), goosegrass (Eleusine indica), johnsongrass (Sorghum halepense), kochia (Kochia scoparia), lambsquarters (Chenopodium album), morningglory (Ipomoea coccinea), eastern black nightshade (Solanum ptycanthum), yellow nutsedge (Cyperus esculentus), pigweed (Amaranthus retroflexus), common ragweed (Ambrosia elatior), soybean (Glycine max), common (oilseed) sunflower (Helianthus annuus), and velvetleaf (Abutilon theophrasti) were planted and treated preemergence with test chemicals formulated in a non-phytotoxic solvent mixture which included a surfactant.
At the same time, plants selected from these crop and weed species and also winter barley (Hordeum vulgare), blackgrass (Alopecurus myosuroides), canarygrass (Phalaris minor), chickweed (Stellaria media), downy brome (Bromus tectorum), green foxtail (Setaria viridis), Italian ryegrass (Lolium multiflorum), wheat (Triticum aestivum), wild oat (Avena fatua) and windgrass (Apera spica-venti) were treated with postemergence applications of some of the test chemicals formulated in the same manner. Plants ranged in height from 2 to 18 cm (1- to 4-leaf stage) for postemergence treatments. Plant species in the flooded paddy test consisted of rice (Oryza sativa), umbrella sedge (Cyperus difformis), duck salad (Heteranthera limosa) and barnyardgrass (Echinochloa crus-galli) grown to the 2-leaf stage for testing. Treated plants and controls were maintained in a greenhouse for 12 to 14 days, after which time all species were compared to controls and visually evaluated. Plant response ratings, summarized in Table C, are based on a scale of 0 to 100 where 0 is no effect and 100 is complete control. A dash (-) response means no test result.

[10] = system: woolly cupgrass (Eriochloa villosa); experiment: Test C pre/postemergence; conditions: Postemergence; for Cupgrass, Woolly plant response rating: scale 0 to 100 (0 no effect, 100 complete control); for Plant response rating, Cupgrass, Woolly: scale 0 to 100
In short: (§2)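 Injury scored visually 12–14 days after application on 0–100 scale (100 = complete control), relative to controls. Compounds, formulated with surfactant in non-phytotoxic solvent, applied to soil at planting (pre) or to 1- to 4-leaf plants 2–18 cm tall (post) in greenhouse.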

[11] = system: morningglory (Ipomoea coccinea); experiment: Test C pre/postemergence; conditions: Postemergence; for Morningglory plant response rating: scale 0 to 100 (0 no effect, 100 complete control); for Plant response rating, Morningglory: scale 0 to 100
In short: as §2

Nc1nc(-c2ccc(Cl)cc2)nc(C(=O)O)c1Br [Compound 88]
Watergrass, Early plant response rating ([1]; 32 g ai/ha): 0 | Watergrass, Early plant response rating ([1]; 64 g ai/ha): 0 | Watergrass, Early plant response rating ([1]; 125 g ai/ha): 0 | Watergrass, Early plant response rating ([1]; 250 g ai/ha): 50 | Plant response rating, Watergrass, Early [1]: 0 | Redstem plant response rating ([2]; 32 g ai/ha): 0 | Redstem plant response rating ([2]; 64 g ai/ha): 0 | Redstem plant response rating ([2]; 125 g ai/ha): 0 | Redstem plant response rating ([2]; 250 g ai/ha): 65 | Plant response rating, Redstem [2]: 0 | Barnyardgrass plant response rating ([3]; 32 g ai/ha): 0 | Barnyardgrass plant response rating ([3]; 64 g ai/ha): 0 | Barnyardgrass plant response rating ([3]; 125 g ai/ha): 0 | Barnyardgrass plant response rating ([3]; 250 g ai/ha): 0 | Plant response rating, Barnyardgrass [3]: 0 | Sprangletop, Brdd. plant response rating ([4]; 32 g ai/ha): 0 | Sprangletop, Brdd. plant response rating ([4]; 64 g ai/ha): 0 | Sprangletop, Brdd. plant response rating ([4]; 125 g ai/ha): 85 | Sprangletop, Brdd. plant response rating ([4]; 250 g ai/ha): 95 | Plant response rating, Sprangletop, Brdd. [4]: 0 | Sedge, Umbrella plant response rating ([5]; 32 g ai/ha): 40 | Sedge, Umbrella plant response rating ([5]; 125 g ai/ha): 85 | Sedge, Umbrella plant response rating ([5]; 250 g ai/ha): 95 | Plant response rating, Sedge, Umbrella [5]: 40 | Rice, Transplanted plant response rating ([6]; 32 g ai/ha): 0 | Rice, Transplanted plant response rating ([6]; 64 g ai/ha): 0 | Rice, Transplanted plant response rating ([6]; 125 g ai/ha): 0 | Rice, Transplanted plant response rating ([6]; 250 g ai/ha): 0 | Plant response rating, Rice, Transplanted [6]: 0 | Junglerice plant response rating ([7]; 32 g ai/ha): 0 | Junglerice plant response rating ([7]; 64 g ai/ha): 0 | Junglerice plant response rating ([7]; 125 g ai/ha): 0 | Junglerice plant response rating ([7]; 250 g ai/ha): 90 | Plant response rating, Junglerice [7]: 0 | Ducksalad plant response rating ([8]; 32 g ai/ha): 100 | Ducksalad plant response rating ([8]; 64 g ai/ha): 100 | Ducksalad plant response rating ([8]; 125 g ai/ha): 100 | Ducksalad plant response rating ([8]; 250 g ai/ha): 100 | Plant response rating, Ducksalad [8]: 95 | Plant response rating (scale of 0 to 100), Chickweed ([9]; 31 g ai/ha): 80 | Plant response rating (scale of 0 to 100), Chickweed ([9]; 62 g ai/ha): 100 | Chickweed plant response rating ([9]; 125 g ai/ha): 100 | Plant response rating, Chickweed ([9]; 250 g ai/ha): 100 | Plant response rating (scale of 0 to 100), Cupgrass, Woolly ([10]; 31 g ai/ha): 70 | Plant response rating (scale of 0 to 100), Cupgrass, Woolly ([10]; 62 g ai/ha): 75 | Cupgrass, Woolly plant response rating ([10]; 125 g ai/ha): 85 | Plant response rating, Cupgrass, Woolly ([10]; 250 g ai/ha): 85 | Plant response rating (scale of 0 to 100), Morningglory ([11]; 31 g ai/ha): 60 | Morningglory plant response rating ([11]; 125 g ai/ha): 85 | Plant response rating, Morningglory ([11]; 250 g ai/ha): 85

CCOC(=O)c1nc(-c2ccc(Cl)cc2)nc(N)c1Br [Compound 37]
Redstem plant response rating ([2]; 32 g ai/ha): 0 | Redstem plant response rating ([2]; 64 g ai/ha): 30 | Redstem plant response rating ([2]; 125 g ai/ha): 40 | Redstem plant response rating ([2]; 250 g ai/ha): 80 | Plant response rating, Redstem [2]: 0 | Barnyardgrass plant response rating ([3]; 64 g ai/ha): 0 | Barnyardgrass plant response rating ([3]; 125 g ai/ha): 0 | Barnyardgrass plant response rating ([3]; 250 g ai/ha): 0 | Plant response rating, Barnyardgrass [3]: 0 | Sprangletop, Brdd. plant response rating ([4]; 32 g ai/ha): 0 | Sprangletop, Brdd. plant response rating ([4]; 64 g ai/ha): 0 | Sprangletop, Brdd. plant response rating ([4]; 125 g ai/ha): 0 | Sprangletop, Brdd. plant response rating ([4]; 250 g ai/ha): 0 | Plant response rating, Sprangletop, Brdd. [4]: 0 | Sedge, Umbrella plant response rating ([5]; 32 g ai/ha): 50 | Sedge, Umbrella plant response rating ([5]; 64 g ai/ha): 50 | Sedge, Umbrella plant response rating ([5]; 125 g ai/ha): 65 | Sedge, Umbrella plant response rating ([5]; 250 g ai/ha): 95 | Plant response rating, Sedge, Umbrella [5]: 30 | Rice, Transplanted plant response rating ([6]; 32 g ai/ha): 0 | Rice, Transplanted plant response rating ([6]; 64 g ai/ha): 0 | Rice, Transplanted plant response rating ([6]; 125 g ai/ha): 0 | Rice, Transplanted plant response rating ([6]; 250 g ai/ha): 0 | Plant response rating, Rice, Transplanted [6]: 0 | Junglerice plant response rating ([7]; 32 g ai/ha): 0 | Junglerice plant response rating ([7]; 64 g ai/ha): 0 | Junglerice plant response rating ([7]; 125 g ai/ha): 0 | Junglerice plant response rating ([7]; 250 g ai/ha): 0 | Plant response rating, Junglerice [7]: 0 | Ducksalad plant response rating ([8]; 32 g ai/ha): 100 | Ducksalad plant response rating ([8]; 64 g ai/ha): 100 | Ducksalad plant response rating ([8]; 125 g ai/ha): 100 | Ducksalad plant response rating ([8]; 250 g ai/ha): 100 | Plant response rating, Ducksalad [8]: 80 | Chickweed plant response rating ([9]; 62 g ai/ha): 0 | Chickweed plant response rating ([9]; 125 g ai/ha): 0 | Plant response rating, Chickweed ([9]; 250 g ai/ha): 0 | Plant response rating, Chickweed ([9]; 500 g ai/ha): 0 | Cupgrass, Woolly plant response rating ([10]; 62 g ai/ha): 0 | Cupgrass, Woolly plant response rating ([10]; 125 g ai/ha): 0 | Plant response rating, Cupgrass, Woolly ([10]; 250 g ai/ha): 0 | Plant response rating, Cupgrass, Woolly ([10]; 500 g ai/ha): 45 | Morningglory plant response rating ([11]; 62 g ai/ha): 0 | Morningglory plant response rating ([11]; 125 g ai/ha): 65 | Plant response rating, Morningglory ([11]; 250 g ai/ha): 80 | Plant response rating, Morningglory ([11]; 500 g ai/ha): 95

CCOC(=O)c1nc(-c2ccc3c(c2)OCO3)nc(N)c1Cl [Compound 74]
Watergrass, Early plant response rating ([1]; 32 g ai/ha): 0 | Watergrass, Early plant response rating ([1]; 64 g ai/ha): 0 | Watergrass, Early plant response rating ([1]; 125 g ai/ha): 0 | Watergrass, Early plant response rating ([1]; 250 g ai/ha): 0 | Plant response rating, Watergrass, Early [1]: 0 | Redstem plant response rating ([2]; 32 g ai/ha): 0 | Redstem plant response rating ([2]; 64 g ai/ha): 0 | Redstem plant response rating ([2]; 125 g ai/ha): 20 | Redstem plant response rating ([2]; 250 g ai/ha): 25 | Plant response rating, Redstem [2]: 0 | Barnyardgrass plant response rating ([3]; 32 g ai/ha): 0 | Barnyardgrass plant response rating ([3]; 64 g ai/ha): 0 | Barnyardgrass plant response rating ([3]; 250 g ai/ha): 0 | Plant response rating, Barnyardgrass [3]: 0 | Sprangletop, Brdd. plant response rating ([4]; 32 g ai/ha): 0 | Sprangletop, Brdd. plant response rating ([4]; 64 g ai/ha): 0 | Sprangletop, Brdd. plant response rating ([4]; 125 g ai/ha): 0 | Sprangletop, Brdd. plant response rating ([4]; 250 g ai/ha): 0 | Plant response rating, Sprangletop, Brdd. [4]: 0 | Sedge, Umbrella plant response rating ([5]; 32 g ai/ha): 0 | Sedge, Umbrella plant response rating ([5]; 64 g ai/ha): 80 | Sedge, Umbrella plant response rating ([5]; 125 g ai/ha): 95 | Sedge, Umbrella plant response rating ([5]; 250 g ai/ha): 100 | Plant response rating, Sedge, Umbrella [5]: 0 | Rice, Transplanted plant response rating ([6]; 32 g ai/ha): 0 | Rice, Transplanted plant response rating ([6]; 64 g ai/ha): 0 | Rice, Transplanted plant response rating ([6]; 125 g ai/ha): 0 | Rice, Transplanted plant response rating ([6]; 250 g ai/ha): 0 | Plant response rating, Rice, Transplanted [6]: 0 | Junglerice plant response rating ([7]; 32 g ai/ha): 0 | Junglerice plant response rating ([7]; 64 g ai/ha): 0 | Junglerice plant response rating ([7]; 125 g ai/ha): 0 | Junglerice plant response rating ([7]; 250 g ai/ha): 65 | Plant response rating, Junglerice [7]: 0 | Ducksalad plant response rating ([8]; 32 g ai/ha): 100 | Ducksalad plant response rating ([8]; 64 g ai/ha): 100 | Ducksalad plant response rating ([8]; 125 g ai/ha): 100 | Ducksalad plant response rating ([8]; 250 g ai/ha): 100 | Plant response rating, Ducksalad [8]: 100
